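1) Cells in 96-well plates. 2) Compound, 48 h, 5 concentrations. 3) Linear interpolation between surrounding doses. 4) Unreached endpoint = highest concentration. GI50 = concentration required for 50% inhibition of growth. The concentration for full growth arrest is given as TGI.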
Columns and labels:
Assay in all cases: NCI tumour cell line growth inhibition, 48 h
[1] = tested on: SF-268 CNS
[2] = tested on: U251 CNS
[3] = tested on: DU-145 prostate
[4] = tested on: SF-539 CNS
[5] = tested on: K-562 leukemia
[6] = tested on: TK-10 renal
[7] = tested on: NCI/ADR-RES ovarian
[8] = tested on: HCC-2998 colon
[9] = tested on: CCRF-CEM leukemia
[10] = tested on: M14 melanoma
[11] = tested on: NCI-H23 lung
[12] = tested on: SN12C renal
[13] = tested on: HCT-116 colon
[14] = tested on: OVCAR-4 ovarian
[15] = tested on: HOP-62 NSCLC
[16] = tested on: EKVX NSCLC
[17] = tested on: SW-620 colon
[18] = tested on: RXF 393 renal
[19] = tested on: OVCAR-3 ovarian
[20] = tested on: OVCAR-8 ovarian
[21] = tested on: T-47D breast
[22] = tested on: MDA-MB-435
[23] = tested on: LOX IMVI melanoma
[24] = tested on: OVCAR-5 ovarian
[25] = tested on: SK-MEL-2 melanoma
[26] = tested on: SK-MEL-28 melanoma
[27] = tested on: PC-3 prostate
[28] = tested on: CAKI-1 renal

SMILES: O=C(COc1cccc(/C=C2\CSc3ccc(Cl)cc3C2=O)c1)c1ccc(Cl)cc1
- GI50 [1]: 13.6 µM
- TGI [1]: 30 µM
- GI50 [2]: 2.32 µM
- TGI [2]: 5.44 µM
- GI50 [3]: 13.6 µM
- TGI [3]: 27.9 µM
- GI50 [4]: 16.8 µM
- TGI [4]: 31.2 µM
- GI50 [5]: 1.83 µM
- TGI [5]: 4.53 µM
- GI50 [6]: 29 µM
- TGI [6]: 79.9 µM
- GI50 [7]: 11.3 µM
- TGI [7]: 31.4 µM
- GI50 [8]: 10.7 µM
- TGI [8]: 22.6 µM
- GI50 [9]: 1.66 µM
- TGI [9]: 4.22 µM
- GI50 [10]: 12.4 µM
- TGI [10]: 28.2 µM
- GI50 [11]: 12.9 µM
- TGI [11]: 42.5 µM
- GI50 [12]: 8.89 µM
- TGI [12]: 22.4 µM
- GI50 [13]: 1.5 µM
- TGI [13]: 2.83 µM
- GI50 [14]: 9.25 µM
- TGI [14]: 23.1 µM
- GI50 [15]: 22.1 µM
- TGI [15]: 72.7 µM
- GI50 [16]: 10.6 µM
- TGI [16]: 38 µM
- GI50 [17]: 1.67 µM
- TGI [17]: 3.09 µM
- GI50 [18]: 14.1 µM
- TGI [18]: 34.3 µM
- GI50 [19]: 3.8 µM
- TGI [19]: 13.6 µM
- GI50 [20]: 5.1 µM
- TGI [20]: > 100 µM
- GI50 [21]: 0.993 µM
- TGI [21]: 18.4 µM
- GI50 [22]: 2.29 µM
- TGI [22]: 8.09 µM
- GI50 [23]: 1.63 µM
- TGI [23]: 3.02 µM
- GI50 [24]: 12.5 µM
- TGI [24]: 29.8 µM
- GI50 [25]: 11.2 µM
- TGI [25]: 24.5 µM
- GI50 [26]: 15.6 µM
- TGI [26]: 30.4 µM
- GI50 [27]: 3.35 µM
- TGI [27]: 11.4 µM
- GI50 [28]: 12.2 µM
- TGI [28]: 34.1 µM

Reference: PubChem BioAssay (NCI)
